Reference: PubChem BioAssay (NCI)
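Tested at 5 concentrations; 48 h exposure; 96-well plates; endpoints linearly interpolated, else capped at highest concentration. Abbreviation: GI50, concentration required for 50% inhibition of growth. TGI: concentration producing complete growth inhibition.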 Where a SMILES comes first, the peptide text is derived from it.

What was measured:
Test in all cases: growth of human tumour cells (NCI), 48 h
BT-549 breast = test system: BT-549 breast
M14 melanoma = test system: M14 melanoma
A549 NSCLC = test system: A549 NSCLC
K-562 leukemia = test system: K-562 leukemia
EKVX NSCLC = test system: EKVX NSCLC
NCI-H522 lung = test system: NCI-H522 lung
IGROV1 ovarian = test system: IGROV1 ovarian
TK-10 renal = test system: TK-10 renal
HOP-92 NSCLC = test system: HOP-92 NSCLC
OVCAR-5 ovarian = test system: OVCAR-5 ovarian

SMILES | TGI (BT-549 breast) | TGI (M14 melanoma) | TGI (A549 NSCLC) | TGI (K-562 leukemia) | TGI (EKVX NSCLC) | TGI (NCI-H522 lung) | TGI (IGROV1 ovarian) | TGI (TK-10 renal) | TGI (HOP-92 NSCLC) | TGI (OVCAR-5 ovarian) | GI50 (BT-549 breast) | GI50 (M14 melanoma) | GI50 (K-562 leukemia) | GI50 (EKVX NSCLC) | GI50 (NCI-H522 lung) | GI50 (IGROV1 ovarian) | GI50 (TK-10 renal) | GI50 (HOP-92 NSCLC) | GI50 (OVCAR-5 ovarian)
CC(=O)Nc1cccc(N2C(=O)/C(=C\c3cccc(Oc4ccccc4)c3)S(=O)(=O)C2c2ccccc2)c1 (stereo not given) | > 100 µM | > 100 µM | > 100 µM | 79.2 µM | > 100 µM | > 100 µM | > 100 µM | > 100 µM | > 100 µM | > 100 µM |  |  |  |  |  |  |  |  | 
COc1ccc(NC(C)=O)cc1N1C(=O)/C(=C\c2ccccc2)SC1c1cc(OC)c(OC)c(OC)c1 (stereo not given) | > 100 µM | > 100 µM | > 100 µM | > 100 µM | > 100 µM | 35.4 µM | > 100 µM | > 100 µM | > 100 µM |  |  |  |  |  |  |  |  |  | 
CN(CC(=O)O)Cc1c(O)c(Cl)cc(Cl)c1Cl | > 100 µM | > 100 µM | > 100 µM |  | > 100 µM | > 100 µM | > 100 µM | > 100 µM | > 100 µM | > 100 µM |  |  |  |  |  |  |  |  | 
NC(=O)C1CCCN1C(=O)C(N)Cc1ccccc1 (stereo not drawn) (H-Phe-Pro-NH2; configuration not given here) |  | > 100 µM | > 100 µM | > 100 µM | > 100 µM | > 100 µM | > 100 µM | > 100 µM |  | > 100 µM |  |  |  |  |  |  |  |  | 
N#CC1=C2SCCN2C(=O)C(C#N)C12CCCCC2 (stereo not given) | > 100 µM | > 100 µM | > 100 µM | > 100 µM | > 100 µM | > 100 µM | > 100 µM | > 100 µM | > 100 µM | > 100 µM |  |  |  |  |  |  |  |  | 
Cc1cc2c(c(O)c1-c1c(C)cc(O)c3c1C(=O)C=CC3=O)C(=O)C=CC2=O | > 25.5 µM | > 100 µM | 52.4 µM | 0.23 µM |  |  | 5.11 µM | 3.12 µM |  | 7.86 µM |  |  |  |  |  |  |  |  | 
O=C1c2cccnc2C(=O)c2c1c(C(=O)OCCN1CCCCC1)c1ccccn21 | 2.16 µM | 0.0656 µM |  | 1.67 µM | 7.52 µM | 0.0992 µM | 2.94 µM | 0.43 µM | 0.285 µM | 2.02 µM | 0.152 µM | 0.0147 µM | 0.0484 µM | 0.851 µM | 0.018 µM | 0.145 µM | 0.0978 µM | 0.0426 µM | 0.198 µM
COc1ccccc1CC(C)N (stereo not given) |  | > 100 µM | > 100 µM | > 100 µM | > 100 µM | > 100 µM | > 100 µM | > 100 µM | > 100 µM | > 100 µM |  |  |  |  |  |  |  |  | 
C=C(C)[C@@H]1CCC2=C[C@H](C/C(C)=C\C3=CC(C)=C(O3)[C@H]1O)OC2=O | > 100 µM | > 100 µM | > 100 µM | > 100 µM | > 100 µM | > 100 µM | > 100 µM | > 100 µM | > 100 µM | > 100 µM |  |  |  |  |  |  |  |  | 
CCCCCCCCCCCCCCCCCCNc1ccn(C2OC(CO)C(OP(=O)(O)OCC(O)COP(=O)(O)OCC3OC(n4cc(F)c(NCCCCCCCCCCCCCCCCCC)nc4=O)CC3O)C2O)c(=O)n1 (stereo not given) | > 50 µM | > 50 µM | > 50 µM | > 50 µM | > 50 µM | > 50 µM | > 50 µM | > 50 µM | > 50 µM | > 50 µM |  |  |  |  |  |  |  |  | 
